A word on the IC50: it is the point on the concentration scale where inhibition reaches its midpoint.

Where only a bound is given, the exact number is not on record here.

Holding throughout (format): biochemical
Assay [1] concerns the target VHR (Homo sapiens, UniProt P51452). The experiment in a line: VHR phosphatase inhibition, general phosphatase assay using para-nitrophenylphosphate. The following applies: read-out: IC50 Target VHR. The text has this:
(§1) Assays protocols for the other enzymes mentioned herein (MtPTPA, PP1, VHR, PTP1B) are disclosed in Schweizer R A S, Atanasov, G A, Frey B M, and Odermatt A, Mol. Cell. Endocrinol. 2003, 212, 41-49 and Barratte, B., Meijer L., Galaktionov K. & Beach D, Anticancer Res. 1992, 12, 873-880. For determination of the phosphatase activity, a general phosphatase assay using para-nitrophenylphosphate was applied.

In assay [2] the target is T1, PTP1B (Homo sapiens, UniProt P18031).
T1 sequence (P18031 1-435): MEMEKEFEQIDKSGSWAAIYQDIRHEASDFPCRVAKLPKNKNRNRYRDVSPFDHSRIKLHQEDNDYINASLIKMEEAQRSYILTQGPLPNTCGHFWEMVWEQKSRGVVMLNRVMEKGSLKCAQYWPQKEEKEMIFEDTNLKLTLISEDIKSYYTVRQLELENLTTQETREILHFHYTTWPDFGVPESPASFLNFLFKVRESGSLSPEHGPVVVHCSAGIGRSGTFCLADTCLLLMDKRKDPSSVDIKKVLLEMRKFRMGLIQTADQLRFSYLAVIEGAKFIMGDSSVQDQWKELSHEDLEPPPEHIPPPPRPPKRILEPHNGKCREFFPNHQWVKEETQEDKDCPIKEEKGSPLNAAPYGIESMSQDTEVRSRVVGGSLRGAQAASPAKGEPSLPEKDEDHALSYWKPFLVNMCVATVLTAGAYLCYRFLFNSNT
The experiment in a line: PTP1B phosphatase inhibition, general phosphatase assay using para-nitrophenylphosphate. Particulars: read-out: IC50 Target PTP1B.
From the text: as §1

For assay [3], the target named is T2, Cdc25A (Homo sapiens, UniProt P30304).
T2 sequence (P30304 1-524): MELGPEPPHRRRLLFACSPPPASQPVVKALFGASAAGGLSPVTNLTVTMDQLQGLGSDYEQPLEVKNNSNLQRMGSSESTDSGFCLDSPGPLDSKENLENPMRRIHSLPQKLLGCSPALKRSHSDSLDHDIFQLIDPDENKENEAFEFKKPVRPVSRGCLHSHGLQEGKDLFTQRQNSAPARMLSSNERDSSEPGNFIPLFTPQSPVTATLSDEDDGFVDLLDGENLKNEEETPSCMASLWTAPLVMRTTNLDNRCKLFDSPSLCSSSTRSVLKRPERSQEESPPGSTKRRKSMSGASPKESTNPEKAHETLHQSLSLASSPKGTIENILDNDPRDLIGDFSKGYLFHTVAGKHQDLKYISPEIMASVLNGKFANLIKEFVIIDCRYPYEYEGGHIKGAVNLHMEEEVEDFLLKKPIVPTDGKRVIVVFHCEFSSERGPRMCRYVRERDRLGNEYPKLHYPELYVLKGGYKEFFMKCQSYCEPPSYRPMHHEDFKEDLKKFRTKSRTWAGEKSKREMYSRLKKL
The experiment in a line: Cdc25A phosphatase inhibition. Particulars: read-out: IC50 Target Cdc25A. The text has this:
Assay protocols for Cdc25A, 11βHSD1, 11βHSD2, and AChE are described in detain in the publication of Koch M A, Wittenberg L O, Basu S, Jeyaraj D A, Gourzoulidou E, Reinecke K, Odermatt A, Waldmann H (Proc. Natl. Acad. Sci. U.S.A. 2004 Nov. 30; 101(48):16721-6) and in Koch M A et al., Proc. Natl. Acad. Sci. U.S.A. 2005 Nov. 29; 102 (48):17272-7.

Chain of VHR (P51452 whole entry, species assumed): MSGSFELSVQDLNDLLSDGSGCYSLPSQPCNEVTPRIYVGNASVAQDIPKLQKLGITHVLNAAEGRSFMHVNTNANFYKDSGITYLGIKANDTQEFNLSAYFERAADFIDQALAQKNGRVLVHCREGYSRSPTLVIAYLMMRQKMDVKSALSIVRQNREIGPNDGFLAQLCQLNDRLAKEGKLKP

Consider `COc1ccc(/C=C2\C[C@@]3(C)C(=C(C)C2=O)CCC[C@@H]3O)c(C)c1` [Compound 16, (3E,4aS,5S)-3-(4-Methoxy-2-methylbenzyliden)-4,4a,5,6,7,8-hexahydro-5-hydroxy-1,4a-dimethylnaphthalen-2(3H)-one], for which the IC50 in assay [1] and in assay [2] was 10 to 50 µM throughout.

For the compound `CC1=C2CCC[C@H](O)[C@@]2(C)C/C(=C\c2cccs2)C1=O` [Compound 30, (3E,4aS,5S)-4,4a,5,6,7,8-Hexahydro-5-hydroxy-1,4a-dimethyl-3-[(thiophen-2-yl)methylen]naphthalen-2(3H)-one], the IC50 in assay [1] and in assay [2] was 10 to 50 µM in each case.

For `CC1=C2CCC[C@H](O)[C@@]2(C)C/C(=C\c2sccc2C)C1=O` [Compound 33], the IC50 in assay [1] and in assay [2] was 10 to 50 µM in each case.

For the compound `CC1=C2CCC[C@H](O)[C@@]2(C)C/C(=C\c2ccco2)C1=O` [Compound 34, (3E,4aS,5S)-3-[(Furan-2-yl)methylen]-4,4a,5,6,7,8-hexahydro-5-hydroxy-1,4a-dimethylnaphthalen-2(3H)-one], the IC50 in assay [2] was 10 to 50 µM.

Consider `COC#Cc1ccc(/C=C2\C[C@@]3(C)C(=C(C)C2=O)CCC[C@@H]3O)cc1` [Compound 37, (3E,4aS,5S)-3-[4-(2-Methoxy-ethinyl)benzyliden]-4,4a,5,6,7,8-hexahydro-5-hydroxy-1,4a-dimethylnaphthalen-2(3H)-one], for which the concentration for half-maximal inhibition (IC50) in assay [2] lay in the range of 10 to 50 µM.

For `CC1=C2CCC[C@H](O)[C@@]2(C)C/C(=C\c2ccc(C#Cc3ccc(C)cc3)cc2)C1=O` [Compound 41, (3E,4aS,5S)-3-[4-(2-p-Tolylethinyl)benzyliden]-4,4a,5,6,7,8-hexahydro-5-hydroxy-1,4a-dimethyl-naphthalen-2(3H)-one], the IC50 in assay [2] lay within 10 to 50 µM.

Consider `C#CCCCCCC#Cc1ccc(/C=C2\C[C@@]3(C)C(=C(C)C2=O)CCC[C@@H]3O)cc1` [Compound 42, (3E,4aS,5S)-3-[4-(Nona-1,8-diinyl)benzyliden]-4,4a,5,6,7,8-hexahydro-5-hydroxy-1,4a-dimethyl-naphthalen-2(3H)-one], for which the IC50 in assay [3] was less than 10 µM.

On to `CCCCCCCCCCCCCCC#Cc1ccc(/C=C2\C[C@@]3(C)C(=C(C)C2=O)CCC[C@@H]3O)cc1` [Compound 43, (3E,4aS,5S)-3-[4-(Hexadec-1-inyl)benzyliden]-4,4a,5,6,7,8-hexahydro-5-hydroxy-1,4a-dimethyl-naphthalen-2(3H)-one], for which the half-inhibitory concentration (IC50) in assay [1] and in assay [2] was 10 to 50 µM throughout.

For `CC1=C2CCC[C@H](O)[C@@]2(C)C/C(=C\c2ccc(C#CC3(O)CCCCC3)cc2)C1=O` [Compound 48, (3E,4aS,5S)-3-{4-[2-(1-Hydroxycyclohexyl)ethinyl]benzyliden}-4,4a,5,6,7,8-hexahydro-5-hydroxy-1,4a-dimethylnaphthalen-2(3H)-one], in assay [3], the half-inhibitory concentration (IC50) was in the range of 10 to 50 µM.

With `CC1=C2CCC[C@H](O)[C@@]2(C)C/C(=C\C[C@]2(O)C[C@@H](O)[C@@H](O)[C@H](O)C2)C1=O` [Compound 58, (3E,4aS,5S)-4,4a,5,6,7,8-Hexahydro-5-hydroxy-3-{2-[(1S,3R,4S,5R)-1,3,4,5-tetrahydroxycyclohexyl]-ethyliden}-1,4a-dimethylnaphthalen2(3H)-one], the IC50 in assay [1] and in assay [2] was 10 to 50 µM each time.

`CC1=C2CCC[C@H](O)[C@@]2(C)C/C(=C\CCc2ccco2)C1=O` [Compound 59, (3E,4aS,5S)-3-[3-(Furan-2-yl)propyliden]-4,4a,5,6,7,8-hexahydro-5-hydroxy-1,4a-dimethylnaphthalen-2(3H)-one]: the IC50 in assay [2] fell in the range of 10 to 50 µM.

Turning to `CC1=C2CCC[C@H](O)[C@@]2(C)C/C(=C\c2c(C)c(C)c(C)c(C)c2C)C1=O` [Compound 61, (3E,4aS,5S)-3-(2,3,4,5,6-Pentamethylbenzyliden)-4,4a,5,6,7,8-hexahydro-5-hydroxy-1,4a-dimethylnaphthalen-2(3H)-one], the IC50 in assay [2] lay in the range of 10 to 50 µM.

As to `CC1=C2CCC[C@H](O)[C@@]2(C)C/C(=C\c2ccc(OCc3ccccc3)cc2)C1=O` [Compound 66, (3E,4aS,5S)-3-[4-(Benzyloxy)benzyliden]-4,4a,5,6,7,8-hexahydro-5-hydroxy-1,4a-dimethylnaphthalen-2(3H)-one], the half-inhibitory concentration (IC50) in assay [2] is 10 to 50 µM.

As to `C=C(C)C#Cc1ccc(/C=C2\C[C@@]3(C)C(=C(C)C2=O)CCC[C@@H]3O)cc1` [Compound 71, (3E,4aS,5S)-3-[4-(3-Methylbut-3-en-1-inyl)benzyliden]-4,4a,5,6,7,8-hexahydro-5-hydroxy-1,4a-dimethylnaphthalen-2(3H)-on], the concentration for half-maximal inhibition (IC50) in assay [3] lay within 10 to 50 µM.

Take `CC1=C2CCC[C@H](O)[C@@]2(C)C/C(=C\c2ccc(C#CCCCc3ccccc3)cc2)C1=O` [Compound 72, (3E,4aS,5S)-3-[4-(5-Phenylpent-1-inyl)benzyliden]-4,4a,5,6,7,8-hexahydro-5-hydroxy-1,4a-dimethylnaphthalen-2(3H)-one]: the IC50 in assay [3] lay within 10 to 50 µM.

Turning to `CC1C(=O)/C(=C/c2cccn2C)C[C@@]2(C)C1CCC[C@@H]2O` (stereo partly drawn) [Compound 86, (E,4aS,5S)-Octahydro-5-hydroxy-1,4a-dimethyl-3-[(1-methyl-1H-pyrrol-2-yl)methylen]naphthalen-2(1H)-one], in assay [3], the concentration for half-maximal inhibition (IC50) lay within 10 to 50 µM.

For the compound `CCCCCCCCCC#Cc1ccc(/C=C2\C[C@@]3(C)C(=C(C)C2=O)CCC[C@@H]3O)cc1` [Compound 90, (3E,4aS,5S)-3-[4-(Undec-1-inyl)benzyliden]-4,4a,5,6,7,8-hexahydro-5-hydroxy-1,4a-dimethylnaphthalen-2(3H)-one], the 50% inhibitory concentration (IC50) in assay [2] was in the range of 10 to 50 µM.

On to `CCCCCCC#Cc1ccc(/C=C2\C[C@@]3(C)C(=C(C)C2=O)CCC[C@@H]3O)cc1` [Compound 91, (3E,4aS,5S)-3-[4-(Oct-1-inyl)benzyliden]-4,4a,5,6,7,8-hexahydro-5-hydroxy-1,4a-dimethylnaphthalen-2(3H)-one], for which, in assay [3], the IC50 was less than 10 µM.

Regarding `C=CC[C@@]12C(=CC(=O)/C(=C/CC)[C@@H]1C)CCC[C@@H]2O` [Compound 282, (3E,4R,4aS,5S)-4a-Allyl-4,4a,5,6,7,8-hexahydro-5-hydroxy-4-methyl-3-propylidennaphthalen-2(3H)-one], the IC50 in assay [2] lay in the range of 10 to 50 µM.

On to `CCCCCCC#Cc1ccccc1/C=C1\CCC2C(C)C(O)CC[C@]2(C)C1NC1CCCCC1` (stereo partly drawn) [Compound 323, (E,4aS)-6-[2-(Oct-1-inyl)benzyliden]-5-(cyclohexylamino)-decahydro-1,4a-dimethylnaphthalen-2-ol], for which the IC50 in assay [3] was in the range of 10 to 50 µM.

As to `C=CC[C@@]12C(=CC(=O)/C(=C/c3ccccc3C#CCCCCCCCCCCCCCC)[C@@H]1C)CCC[C@@H]2O` [Compound 326, (3E,4R,4aS,5S)-3-[2-(Hexadec-1-inyl)benzyliden]-4a-allyl-4,4a,5,6,7,8-hexahydro-5-hydroxy-4-methylnaphthalen-2(3H)on], the IC50 in assay [3] is 10 to 50 µM.

Consider `CC1=C2CCC[C@H](O)[C@@]2(C)CC(=Cc2ccc(C#Cc3ccncc3)cc2)C1=O` [Compound 395, (4aS,5S)-5-Hydroxy-1,4a-dimethyl-3-(4-pyridin-4-ylethynyl-benzylidene)-4,4a,5,6,7,8-hexahydro-3H-naphthalen-2-one], for which the half-maximal inhibitory concentration (IC50) in assay [1] and in assay [2] was 10 to 50 µM in each case.

Regarding `CC1=C2CC(C(C)C)CC(O)C2CCC1=O` (centres unmarked) [Compound 417, 5-Hydroxy-7-isopropyl-1-methyl-4,4a,5,6,7,8,-hexahydro-3H-naphthalen-2-one], in assay [2], the IC50 fell in the range of 10 to 50 µM.
